Results reported in publication PMC8592419 (PLoS ONE, 2021).
In brackets after ≈: the same amount, converted by molar mass. Like-named read-outs stand apart in the source and are kept apart here. Where a SMILES comes first, the peptide text is derived from it.

Tests used:
[1] = test system: human peripheral blood mononuclear cells (PBMCs); assay: PBMC toxicity, trypan blue exclusion assay; type: cell-based; details: 1 h at 37°C, mean±SD of duplicates, two independent experiments
Method: For the toxicity of the potential AMPs to human peripheral blood mononuclear cells (PBMCs), the trypan blue exclusion assay was used. Fresh human PBMCs were prepared from blood samples of healthy volunteers using the Ficoll density gradient technique. The cells were centrifuged at 1,800 rpm for 20 min at 20°C and washed three times with PBS and adjusted with RPMI-1640 medium into 6.25×10^5 cells/ml. Fifty microliters of PBMC suspension and 50 μl of AMP solutions (6.25–400 μg/ml) were added to the 96-well microtiter plates and incubated for 1 h at 37°C. Then, 20 μl of the samples were mixed with 20 μl of 0.4% (w/v) trypan blue solution (0.81% NaCl and 0.06% (w/v) dibasic potassium phosphate) in microtubes and incubated for 3 min at room temperature. The PBMC suspensions treated with PBS were used as negative controls. PBMCs were counted using a dual-chamber hemocytometer under a light microscope. Viable and non-viable cells were counted under a microscope and the percentage of viable cells was calculated using the following formula: % of viable cells = [1.00 –([…] / Number of total cells)] × 100. All assays were performed in duplicate with two independent experiments.

[2] = test system: human red blood cells (RBCs); assay: Hemolytic toxicity test; type: cell-based; details: for Hemolytic activities (%hemolysis): human RBCs, 1 h at 37°C, mean±SD of duplicates, two independent experiments
Method: For the hemolytic toxicity test, red blood cells (RBCs) from fresh blood samples of healthy volunteers were obtained by centrifugation at 1,000 rpm for 5 min. The cells were washed three times with sterile phosphate buffered saline (PBS) and adjusted into 1×10^8 cells/ml. AMPs were diluted with PPB in ranging from 6.25 to 400 μg/ml. Fifty microliters of the RBC suspensions and 50 μl of AMP solutions were added to 1.5 ml sterile microtubes, incubated for 1 h at 37°C and then centrifuged at 1,000 rpm for 5 min. The supernatants were transferred to new 96-well microtiter plates for measurement of the absorbance at 540 nm using a microplate reader. RBC suspensions treated with 2% (v/v) Triton X-100 and PBS solution were used as positive and negative controls. The percentages of hemolysis were calculated using the following formula: % of RBC lysis = 100 × [(Test—PBS) / (Positive control—PBS)]. All assays were performed in duplicate and two independent experiments.

Mab ATCC19977 strain = type: cell-based, Mycobacterium abscessus
Method: (§1) Briefly, serial dilutions of the AMPs were prepared with potassium phosphate buffer (PPB) from the concentration range of 3.125 to 400 μg/ml and then 50 μl of each dilution were added to each 96-well plate. Colonies of the isolate were suspended and then further diluted in Mueller-Hinton broth to obtain a final concentration of 1×10^3 CFU/ml (optimized according to the available AMP stock concentration). Fifty microliters of this inoculum were added to each well of the plates. The plates were incubated for 3 days at 37°C. Plain media and bacterial suspensions without AMPs were used as negative and positive controls. The MIC values were read and recorded. All assays were performed in duplicate and two independent experiments.

[3] = test system: M. abscessus clinical isolate MAB08; assay: In vitro antimicrobial susceptibility of potential AMPs, broth microdilution, 3 days; type: cell-based, M. abscessus subsp. abscessus; details: 3 days at 37°C
Method: as §1
(§2) For the in vitro antimicrobial susceptibility, the same protocol as described above was used. The culture plates were further incubated up to 3 days at 37°C. The MIC values were read and recorded.

[4] = test system: M. abscessus clinical isolate MAB04; assay: as above; type: cell-based, M. abscessus subsp. abscessus; details: 3 days at 37°C
Method: as §1, §2

[5] = test system: M. abscessus clinical isolate MAB03; assay: In vitro susceptibility testing (DST), CLSI broth microdilution; type: cell-based, M. abscessus subsp. abscessus; set-up: key to DST profile, interpretation, Day 3 / DST profile, interpretation, Day 5 / DST profile, interpretation, Day 14: S, susceptible; I, intermediate; R, resistant; details: for MIC: Mycobacteroides abscessus
Method: (§3) Drug susceptibility testing (DST) was performed according to the Clinical and Laboratory Standards Institute (CLSI) guidelines M24-A2 [42] using the broth microdilution method to determine the minimum inhibitory concentration (MIC). […] Colonies were grown at an adjusted cell density to a 0.5 McFarland standard and further diluted to 5×10^5 CFU/ml. […] These were then incubated at 37°C for 3, 5 and 14 days. The MIC was defined as the concentration in which no visible growth was observed. The results were interpreted according to the guidelines of CLSI. Inducible resistance was inferred by changes in MIC values from being susceptible at day 3 to resistant at day 14.

[6] = test system: M. abscessus clinical isolate MAB05; assay: as above; type: cell-based, M. abscessus subsp. abscessus; set-up: key to DST profile, interpretation, Day 3 / DST profile, interpretation, Day 5 / DST profile, interpretation, Day 14: S, susceptible; I, intermediate; R, resistant; details: for MIC: Mycobacteroides abscessus
Method: as §3

[7] = test system: M. abscessus clinical isolate MAB01; assay: as above; type: cell-based, M. abscessus subsp. abscessus; set-up: key to DST profile, interpretation, Day 3 / DST profile, interpretation, Day 5 / DST profile, interpretation, Day 14: S, susceptible; I, intermediate; R, resistant; details: for MIC: Mycobacteroides abscessus
Method: as §3

[8] = 72 h, day 3, read-out: DST profile, MIC value, Day 3
[9] = 120 h, day 5, read-out: DST profile, MIC value, Day 5
[10] = 336 h, day 14, read-out: DST profile, MIC value, Day 14

Structure (SMILES) | Viable cells of PBMCs (% viable cells) ([1]; 6.25 µg/mL) [%] | Viable cells of PBMCs (% viable cells) ([1]; 12.5 µg/mL) [%] | Viable cells of PBMCs (% viable cells) ([1]; 25 µg/mL) [%] | Viable cells of PBMCs (% viable cells) ([1]; 50 µg/mL) [%] | Viable cells of PBMCs (% viable cells) ([1]; 100 µg/mL) [%] | Viable cells of PBMCs (% viable cells) ([1]; 200 µg/mL) [%] | Viable cells of PBMCs (% viable cells) ([1]; 400 µg/mL) [%] | Hemolytic activities (%hemolysis) ([2]; 6.25 µg/mL) [%] | Hemolytic activities (%hemolysis) ([2]; 12.5 µg/mL) [%] | Hemolytic activities (%hemolysis) ([2]; 25 µg/mL) [%] | Hemolytic activities (%hemolysis) ([2]; 50 µg/mL) [%] | Hemolytic activities (%hemolysis) ([2]; 100 µg/mL) [%] | Hemolytic activities (%hemolysis) ([2]; 200 µg/mL) [%] | Hemolytic activities (%hemolysis) ([2]; 400 µg/mL) [%] | MIC values (Mab ATCC19977 strain) [µg/mL] | Antimicrobial peptides against M. abscessus isolates, MIC value [3] [µg/mL] | Antimicrobial peptides against M. abscessus isolates, MIC value [4] [µg/mL] | other results
CC[C@H](C)[C@H](NC(=O)[C@H](CCCCN)NC(=O)[C@H](CCCNC(=N)N)NC(=O)CNC(=O)[C@H](CC(C)C)NC(=O)[C@H](CO)NC(=O)[C@H](CCCNC(=N)N)NC(=O)[C@H](CC(C)C)NC(=O)CNC(=O)CN)C(=O)N[C@@H](CC(C)C)C(=O)N[C@@H](CCCNC(=N)N)C(=O)N[C@@H](C)C(=O)N[C@@H](Cc1c[nH]c2ccccc12)C(=O)N[C@@H](CCCCN)C(=O)N[C@@H](CCCCN)C(=O)N[C@@H](Cc1ccc(O)cc1)C(=O)O [S61] (H-GGLRSLGRKILRAWKKY-OH) | 97.98±1.38 | 94.40±0.56 | 95.35±3.74 | 87.35±7.57 | 79.70±6.73 | 38.76±0.82 | 41.40±5.84 | -0.18±0.75 | 4.58±4.48 | 6.34±4.98 | 9.15±1.99 | 10.74±0.75 | 11.44±0.25 | 13.03±0.00 | 200 (≈ 99.9 µM) | >400 | >400 | MIC within 24 h, majority of isolates (10/16): < 50 µg/mL
CC[C@H](C)[C@H](NC(=O)[C@H](CCCCN)NC(=O)[C@H](CCCNC(=N)N)NC(=O)CNC(=O)[C@H](CC(C)C)NC(=O)[C@H](CO)NC(=O)[C@H](CCCNC(=N)N)NC(=O)[C@H](CC(C)C)NC(=O)CNC(=O)CN)C(=O)N[C@@H](CC(C)C)C(=O)N[C@@H](CCCNC(=N)N)C(=O)N[C@@H](C)C(=O)N[C@@H](Cc1c[nH]c2ccccc12)C(=O)N[C@@H](CCCCN)C(=O)O [S63] (H-GGLRSLGRKILRAWK-OH) | 103.67±6.60 | 101.78±5.46 | 88.38±7.60 | 93.65±6.02 | 66.28±2.71 | 71.94±8.32 | 48.78±0.59 | -0.53±0.75 | 3.52±4.98 | 5.81±3.73 | 7.04±3.98 | 8.27±3.73 | 9.68±2.74 | 10.56±1.99 | 200 (≈ 117 µM) | >400 | >400 | hemolysis at the MICs level ([2]; at the MICs level, single figure of the abstract): 1.50%
CC[C@H]1OC(=O)[C@H](C)[C@@H](O[C@H]2C[C@@](C)(OC)[C@@H](O)[C@H](C)O2)[C@H](C)[C@@H](O[C@@H]2O[C@H](C)C[C@H](N(C)C)[C@H]2O)[C@](C)(OC)C[C@@H](C)C(=O)[C@H](C)[C@@H](O)[C@]1(C)O [CLA, Clarithromycin] |  |  |  |  |  |  |  |  |  |  |  |  |  |  |  |  |  | MIC [5, 8]: 8 µg/mL (≈ 10.7 µM); MIC [5, 9]: 8 µg/mL (≈ 10.7 µM); MIC [5, 10]: 8 µg/mL (≈ 10.7 µM); DST profile, interpretation, Day 3 ([5]; day 3, CLSI interpretation): R; DST profile, interpretation, Day 5 ([5]; day 5, CLSI interpretation): R; DST profile, interpretation, Day 14 ([5]; day 14, CLSI interpretation): R; MIC [6, 8]: 4 µg/mL (≈ 5.35 µM); MIC [6, 9]: 8 µg/mL (≈ 10.7 µM); MIC [6, 10]: 16 µg/mL (≈ 21.4 µM); DST profile, interpretation, Day 3 ([6]; day 3, CLSI interpretation): I; DST profile, interpretation, Day 5 ([6]; day 5, CLSI interpretation): R; DST profile, interpretation, Day 14 ([6]; day 14, CLSI interpretation): R; MIC [7, 8]: 1020 µg/mL (≈ 1370 µM); MIC [7, 9]: 1020 µg/mL (≈ 1370 µM); MIC [7, 10]: 1020 µg/mL (≈ 1370 µM); DST profile, interpretation, Day 3 ([7]; day 3, CLSI interpretation): R; DST profile, interpretation, Day 5 ([7]; day 5, CLSI interpretation): R; DST profile, interpretation, Day 14 ([7]; day 14, CLSI interpretation): R
